pIC50: −log10 of the molar value.
What was measured:
[1] = test system: production of Interleukin-1 (IL-1); test: Inhibitory activity on the production of Interleukin-1 (IL-1) in LPS-stimulated human peripheral blood monocyte; type: cell-based; details: 48 h; purified human peripheral blood monocyte, LPS 1 μg/10^4 cells, 2 days at 37° C., IL-1β ELISA of supernatant; read-out: IC50 (inhibition of IL-1 production)
Description: Purified human peripheral blood monocyte were stimulated with bacterial lipopolysaccharide (1 μg/10^4 cells) in the absence or presence of appropriately diluted test compound for 2 days at 37° C. in a humidified 5% CO2 atmosphere. Culture supernatants were tested for IL-1 ELISA assay.
Test compound was dissolved in absolute DMSO (dimethyl sulfoxide) to achieve 10 mM stock solutions and was subsequently diluted in serum free RPMI1640.
IL-1 levels were quantified by a commercial ELISA kit (Ohtsuka assay, Japan) using a sandwich technique. The sensitivity levels for the detection of IL-1β were 20 pg/ml.
(§1) The inhibitory concentration that caused a 50% inhibition (IC50) was calculated by regression analysis of the dose-response data.

[2] = test system: production of tumor necrosis factor (TNF); test: Inhibitory activity on the production of tumor necrosis factor (TNF) in LPS-stimulated human peripheral blood monocyte; type: cell-based; details: 48 h; purified human peripheral blood monocyte, LPS 1 μg/10^4 cells, 2 days at 37° C., TNF ELISA of supernatant; read-out: IC50 (inhibition of TNF production)
Description: Purified human peripheral blood monocyte were stimulated with bacterial lipopolysaccharide (1 μg/10^4 cells) in the absence or presence of appropriately diluted test compound for 2 days at 37° C. in a humidified 5% CO2 atmosphere. Culture supernatants were tested for TNF ELISA assay.
TNF levels were quantified by a commercial ELISA kit (Endogen, Inc. USA) using a sandwich technique. The sensitivity levels for the detection of TNF were 12 pg/ml.
as §1

Row | pIC50 [1] | Structure (SMILES) | pIC50 [2]
1 | 7.06 | Fc1ccc(-c2nn3c(c2-c2ccncc2)NN(C2CCCCC2)CC3)cc1 [Example 18-(2), 2-Cyclohexyl-7-(4-Fluorophenyl)-8-(pyridin-4-yl)-1,2,3,4-tetrahydropyrazolo[5,1-c][1,2,4]triazine] | 6.96
2 | 7.04 | CC(C)(C)CN1CCn2nc(-c3ccc(F)cc3)c(-c3ccncc3)c2N1 [Example 16-(5), 7-(4-Fluorophenyl)-2-neopentyl-8-(pyridin-4-yl)-1,2,3,4-tetrahydropyrazolo[5,1-c][1,2,4]triazine] | 7.04
